Laboratory results reported in US20130023051A1, “TECHNIQUES FOR TRANSFECTING PROTOPLASTS” (Keygene N.V., priority 2009, published 2013).

Tested on: mutated EGFP (mEGFP) in BY-2 protoplasts
Test: meGFP restoration in BY-2 protoplasts by oligonucleotide-mediated targeted gene repair (Example 3)
Format: cell-based, tobacco
Text: A tobacco Bright Yellow 2 cell suspension containing a non-functional EGFP gene was produced by introducing a point mutation in the chromophore region of the protein resulting in the formation of a premature stop codon. This line is used as reporter system to test the influence of various parameters on the repair of the EGFP gene by oligonucleotide-mediated targeted gene repair.
Five mL of a 7 d-old tobacco Bright Yellow 2 (BY-2) cell suspension culture weekly maintained in BY-2 culture medium (Nagata et al. 1999 Method Cell Sci) are transferred to a 50 mL Erlenmeyer flask containing 45 mL of BY-2 culture medium supplemented with 2 mM hydroxyurea. […] Live protoplasts are harvested and their density evaluated using a haemocytometer. […]
Tobacco protoplasts transfection is performed as for tomato protoplasts. […] To culture medium contained (per liter, pH 5.7) 950 mg KNO3, 825 mg NH4NO3, 220 mg CaCl2.2H2O, 185 mg MgSO4.7H2O, 85 mg KH2PO4, 27.85 mg FeSO4.7H2O, 37.25 mg Na2EDTA.2H2O, the micro-nutrients according to Heller's medium (Heller, R. 1953 Ann Sci Nat Bot Biol Veg), vitamins according to Morel and Wetmore's medium (Morel, G. and R. H. Wetmore 1951 Amer. J. Bot.), 2% (w/v) sucrose, 3 mg naphthalene acetic acid, 1 mg 6-benzylaminopurine and a quantity of mannitol to bring the osmolality to 540 mOsm·kg^−1 and transferred to a 35 mm Petri dish. […]

Substance: repairing oligonucleotide: SEQ ID NO 8, T*G*A*A*CAGCTCCTCGCCCTTGC*T*C*A*C, phosphorothioate ends, one mismatch with the targeted sequence (DNA TGAACAGCTCCTCGCCCTTGCTCAC; DNA, linkages s4 o16 s4 (s phosphorothioate, o phosphodiester), methylation of C not given here)
- GFP positive protoplasts after 24 hours (/10^6) (label = Day 1 / Day 2 treatment, oligonucleotide transfected at Day 2, dichlobenil 2 mg·L^−1 overnight, 2 mM hydroxyurea): 0 /10^6
- GFP positive protoplasts after 24 hours (/10^6) (oligonucleotide transfected at Day 1, nothing at Day 2, 2 mM hydroxyurea): 0 /10^6
